The record followed here is ChEMBL document CHEMBL1151894, “Novel immunoconjugates comprised of streptonigrin and 17-amino-geldanamycin attached via a dipeptide-p-aminobenzyl-amine linker system” (Bioorg Med Chem Lett, 2009).

Assay type in all cases: functional, cell-based
One assay concerns KARPAS-299. In words: Cytotoxicity against CD30 expressing and CD70 deficient human KARPAS299 cells after 96 hrs by resazurin conversion assay. As to conditions: KARPAS-299, 96 h. (In general: Alamar Blue is a resazurin reagent that responds to reducing activity.)
Assay [1] is described as follows: Cytotoxicity against CD30 expressing and CD70 deficient human L540cy cells after 96 hrs by resazurin conversion assay.
The next assay concerns CAKI-1. In words: Cytotoxicity against CD30 deficient and CD70 expressing human Caki1 cells after 96 hrs by resazurin conversion assay. Particulars: CAKI-1, 96 h.

In the case of `COC1=C(N)C(=O)c2nc(-c3nc(C(=O)O)c(C)c(-c4ccc(OC)c(OC)c4O)c3N)ccc2C1=O` [STREPTONIGRIN], the IC50 (usually the midpoint of a concentration-inhibition curve) in the assay with KARPAS-299 was 0.4 nM; in assay [1], 0.8 nM; in the assay with CAKI-1 it was 0.4 nM.
